Test results as given in ChEMBL document CHEMBL6096719, “Kidney Targeting Smart Antibiotic Discovery: Multimechanism Pleuromutilins for Pyelonephritis Therapy” (J Med Chem, 2025).
Active and inactive are the calls of the source. No cut-off for these calls is given here.

Key:
[1] = Aqueous solubility of the compound incubated for 12 hrs by UV-Vis spectrophotometry; format: physicochemical; conditions: buffer
[2] = tested on: Cell membrane; assay: Disruption of cell membrane in Escherichia coli ATCC25922 assessed as dissipation of membrane potential at 0.125 to 0.5 ug/ml incubated for 30 mins by DiBAC4(3) probe based fluorescence spectrophotometry; conditions: dose 0.125-0.5 µg/ml
[3] = tested on: Metamycoplasma hominis; assay: Anti-mycoplasma activity against Mycoplasma hominis PG-21 ATCC23114 assessed as inhibition of bacterial growth incubated for 1 to 2 days by broth microdilution method; format: functional; conditions: time 1-2 day
[4] = tested on: Staphylococcus aureus; assay: Antibacterial activity against Staphylococcus aureus ATCC 29213 assessed as inhibition of bacterial growth incubated for 24 hrs by broth microdilution method; format: functional
[5] = Half-life in Sprague-Dawley rat at 10 mg/kg, po; format: ADME, organism-based; conditions: in vivo
[6] = tested on: Escherichia coli; assay: Antibacterial activity against Escherichia coli ATCC25922 infected in pyelonephritis C57BL/6 mouse model assessed as saturated bacterial clearance at >=5 mg/kg, iv qd for 3 days administered at 2 days post-infection; format: functional, organism-based; conditions: time 3.0 day
[7] = tested on: Escherichia coli; assay: Antibacterial activity against Escherichia coli ATCC25922 infected in pyelonephritis C57BL/6 mouse model assessed as decrease in bacterial load in kidney at 3 to 10 mg/kg, iv qd for 3 days administered at 2 days post-infection; format: functional, organism-based; conditions: dose 3-10 mg/kg, time 3.0 day
[8] = tested on: Staphylococcus epidermidis; assay: Antibacterial activity against methicillin-resistant Staphylococcus epidermidis ATCC 51625 assessed as inhibition of bacterial growth incubated for 24 hrs by broth microdilution method; format: functional
[9] = tested on: Chlamydia pneumoniae; assay: Anti-mycoplasma activity against Chlamydophila pneumoniae TW183 VR-2282 assessed as inhibition of bacterial growth incubated for 3 to 5 days by broth microdilution method; format: functional; conditions: time 3-5 day
[10] = tested on: Escherichia coli; assay: Antibacterial activity against Escherichia coli ATCC25922 infected in pyelonephritis C57BL/6 mouse model assessed as decrease in kidney swelling at 3 to 10 mg/kg, iv qd for 3 days administered at 2 days post-infection; format: functional, organism-based; conditions: dose 3-10 mg/kg, time 3.0 day
[11] = tested on: Cell membrane; assay: Disruption of cell membrane in Escherichia coli ATCC25922 assessed as decrease in intracellular pH at 0.125 ug/ml incubated for 30 mins by cFDA-SE probe based fluorescence analysis; conditions: dose 0.125 µg/ml
[12] = tested on: Mycoplasmoides gallisepticum; assay: Anti-mycoplasma activity against Mycoplasma gallisepticum NCTC10115 assessed as inhibition of bacterial growth incubated for 3 to 5 days by broth microdilution method; format: functional; conditions: time 3-5 day
[13] = tested on: Cell membrane; assay: Disruption of cell membrane in methicillin-resistant Staphylococcus aureus ATCC33591 assessed as decrease in intracellular ATP content at 0.125 to 0.25 ug/ml incubated for 30 mins by luminescence based analysis; conditions: dose 0.125-0.25 µg/ml
[14] = tested on: Staphylococcus aureus; assay: Antibacterial activity against methicillin-resistant Staphylococcus aureus 171 assessed as inhibition of bacterial growth incubated for 24 hrs by broth microdilution method; format: functional
[15] = tested on: Acinetobacter baumannii; assay: Antibacterial activity against carbapenem-resistant Acinetobacter baumannii 882 assessed as inhibition of bacterial growth incubated for 24 hrs by broth microdilution method; format: functional
[16] = tested on: Cell membrane; assay: Disruption of cell membrane in Escherichia coli ATCC25922 assessed as decrease in intracellular ATP content at 0.125 to 0.25 ug/ml incubated for 30 mins by luminescence based analysis; conditions: dose 0.125-0.25 µg/ml
[17] = Tmax in Sprague-Dawley rat at 5 mg/kg, iv; format: ADME, organism-based; conditions: in vivo
[18] = tested on: Staphylococcus aureus; assay: Antibacterial activity against methicillin-resistant Staphylococcus aureus ATCC 43300 assessed as inhibition of bacterial growth incubated for 24 hrs by broth microdilution method; format: functional
[19] = Toxicity against methicillin-resistant Staphylococcus aureus ATCC33591 infected in systemic intraperitoneal infection Kunming mouse model assessed as mild liver damage at 20 mg/kg, ip treated at 1 hr post-infection and measured after 7 days by Hematoxylin-Eosin staining based analysis; format: organism-based; conditions: in vivo, 168 h, time 7 day
[20] = tested on: Staphylococcus aureus; assay: Antibacterial activity against methicillin-resistant Staphylococcus aureus ATCC33591 infected in systemic intraperitoneal infection Kunming mouse model assessed as decrease in inflammation, neutrophil infiltration, alveolar structure destruction, leukocyte infiltration, interstitial thickening in lungs at 5 mg/kg, ip treated at 1 hr post-infection and measured after 7 days by Hematoxylin-Eosin staining based analysis; format: functional, organism-based; conditions: time 7.0 day
[21] = Observed clearance in Sprague-Dawley rat at 5 mg/kg, iv; format: ADME, organism-based; conditions: in vivo
[22] = tested on: Escherichia coli; assay: Antibacterial activity against Escherichia coli ATCC25922 assessed as post-antibiotic effect at 0.25 ug/ml incubated for 1 hr followed by washing and incubation in MHB medium for 10 hrs and later cultured on agar plate for overnight; format: functional; conditions: dose 0.25 µg/ml
[23] = tested on: Staphylococcus aureus; assay: Antibacterial activity against methicillin-resistant Staphylococcus aureus ATCC33591 infected in systemic intraperitoneal infection Kunming mouse model assessed as increase in animal's survival rate at 5 to 20 mg/kg, ip treated at 1 hr post-infection and measured for 7 days; format: functional, organism-based; conditions: dose 5-20 mg/kg, time 7.0 day
[24] = tested on: Chlamydia pneumoniae; assay: Anti-mycoplasma activity against Chlamydophila pneumoniae AR39 ATCC53592 assessed as inhibition of bacterial growth incubated for 3 to 5 days by broth microdilution method; format: functional; conditions: time 3-5 day
[25] = tested on: Cell membrane; assay: Disruption of cell membrane in Escherichia coli ATCC25922 assessed as disrupted, furrowed, crumpled cell envelope at 0.125 to 0.5 ug/ml incubated for 2 hrs by propidium iodide staining based confocal laser scanning microscopy; format: subcellular; conditions: dose 0.125-0.5 µg/ml
[26] = Drug uptake in Sprague-Dawley rat liver at 5 mg/kg, iv measured for 6 hrs by LC-MS/MS analysis; format: ADME, organism-based; conditions: in vivo
[27] = tested on: Cell membrane; assay: Disruption of cell membrane in Escherichia coli ATCC25922 assessed as increase in extracellular ATP content at 0.125 to 0.25 ug/ml incubated for 30 mins by luminescence based analysis; conditions: dose 0.125-0.25 µg/ml
[28] = tested on: Mycoplasmopsis synoviae; assay: Anti-mycoplasma activity against Mycoplasma synoviae WVU1853 NCTC10124 assessed as inhibition of bacterial growth incubated for 3 to 5 days by broth microdilution method; format: functional; conditions: time 3-5 day
[29] = tested on: Escherichia coli; assay: Antibacterial activity against Escherichia coli ATCC25922 infected in pyelonephritis C57BL/6 mouse model assessed as decrease in IL-6 level in kidney at 3 to 10 mg/kg, iv qd for 3 days administered at 2 days post-infection by ELISA; format: functional, organism-based; conditions: dose 3-10 mg/kg, time 3.0 day
[30] = tested on: Enterococcus; assay: Antibacterial activity against vancomycin-resistant Enterococcus 80 assessed as inhibition of bacterial growth incubated for 24 hrs by broth microdilution method; format: functional
[31] = tested on: Staphylococcus aureus; assay: Antibacterial activity against methicillin-resistant Staphylococcus aureus ATCC33591 infected in systemic intraperitoneal infection Kunming mouse model assessed as decrease in inflammation and neutrophil infiltration in kidney at 5 mg/kg, ip treated at 1 hr post-infection and measured after 7 days by Hematoxylin-Eosin staining based analysis; format: functional, organism-based; conditions: time 7.0 day
[32] = tested on: Cell membrane; assay: Disruption of cell membrane in methicillin-resistant Staphylococcus aureus ATCC33591 assessed as disrupted, furrowed, crumpled cell envelope at 0.125 to 0.5 ug/ml incubated for 2 hrs by propidium iodide staining based confocal laser scanning microscopy; format: subcellular; conditions: dose 0.125-0.5 µg/ml
[33] = tested on: Cell membrane; assay: Disruption of cell membrane in methicillin-resistant Staphylococcus aureus ATCC33591 assessed as induction of cell death by measuring increase in propidium iodide fluorescence intensity at 0.5 ug/ml incubated for 2 hrs by bright field microscopy; format: subcellular; conditions: dose 0.5 µg/ml

For `C=C[C@]1(C)C[C@@H](OC(=O)CSc2nc3cc[n+](Cc4ccc(C)cc4)cc3[nH]2)[C@]2(C)[C@H](C)CC[C@]3(CCC(=O)[C@H]32)[C@@H](C)[C@@H]1O.[Br-]`, the solubility at 12 h [1] was 573 µg/mL, the Activity [2] was “Active” and the MIC [3] was under 0.04 µg/mL. For the same compound, the MIC [4] was under 1 µg/mL, the half-life [5] was 94.2 min and the Activity [6] was “Active”. The Activity [7] was “Active”, the MIC [8] was under 1 µg/mL and the MIC [9] was under 0.04 µg/mL. The Activity [10] was “Active”, the Activity [11] was “Active” and the MIC [12] was under 0.04 µg/mL. For the same compound, the Activity [13] was “Active”, the MIC [14] was 4 µg/mL and the MIC [15] was 4 µg/mL. The Activity [16] was “Active”, the Tmax [17] was 1.8 min and the MIC [18] was under 1 µg/mL. For the same compound, the Activity [19] was “Toxic”, the Activity [20] was “Active; Nearly Restoration Of Normal Histology Observed” and the clearance [21] was 5.04 mL/min/kg. For the same compound, the PAE [22] was 1.78 h, the Activity [23] was “Active; Superior Efficacy Over Valnemulin Observed” and the MIC [24] was under 0.04 µg/mL. The Activity [25] was “Active”, the Drug uptake [26] was “Active” and the Activity [27] was “Active”. The MIC [28] was under 0.04 µg/mL, the Activity [29] was “Dose-dependent-effect” and the MIC [30] was 4 µg/mL. For the same compound, the Activity [31] was “Active; Nearly Restoration Of Normal Histology Observed”, the Activity [32] was “Active” and the Activity [33] was “Active”.
